Test results: PubChem BioAssay (NCI)
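Cells were grown in 96-well plates and exposed to each compound for 48 hours at five concentrations; endpoints were interpolated linearly between bracketing concentrations, or set to the highest concentration if not reached. Here, GI50 denotes the concentration required for 50% inhibition of growth. TGI marks complete inhibition of growth.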 Where a SMILES comes first, the peptide text is derived from it. The star is where a group is joined. Fmoc = O=C(OCC1c2ccccc2-c2ccccc21)*; Boc = CC(C)(C)OC(=O)*

How the values were obtained:
Assay in all cases: NCI anticancer screen, dose series, 48 h
DU-145 prostate = test system: DU-145 prostate
HCC-2998 colon = test system: HCC-2998 colon
HCT-15 colon = test system: HCT-15 colon
NCI-H226 lung = test system: NCI-H226 lung
NCI-H460 lung = test system: NCI-H460 lung
OVCAR-3 ovarian = test system: OVCAR-3 ovarian
PC-3 prostate = test system: PC-3 prostate
RXF 393 renal = test system: RXF 393 renal
SK-OV-3 ovarian = test system: SK-OV-3 ovarian
U251 CNS = test system: U251 CNS

Row | Compound | TGI (DU-145 prostate) | TGI (HCC-2998 colon) | TGI (HCT-15 colon) | TGI (NCI-H226 lung) | TGI (NCI-H460 lung) | TGI (OVCAR-3 ovarian) | TGI (PC-3 prostate) | TGI (RXF 393 renal) | TGI (SK-OV-3 ovarian) | TGI (U251 CNS) | GI50 (DU-145 prostate) | GI50 (HCC-2998 colon) | GI50 (HCT-15 colon) | GI50 (NCI-H226 lung) | GI50 (NCI-H460 lung) | GI50 (OVCAR-3 ovarian) | GI50 (PC-3 prostate) | GI50 (RXF 393 renal) | GI50 (SK-OV-3 ovarian) | GI50 (U251 CNS)
1 | COc1ccc(C(SCCO)(c2ccccc2)c2ccccc2)cc1 | 27 µM | 31.1 µM | 28.7 µM | 30.2 µM | 27.5 µM | 31.8 µM | 25.4 µM | 41 µM | 34.8 µM | 25.9 µM | – | – | – | – | – | – | – | – | – | –
2 | CSc1ccc(NC(=S)NN(C)C)cc1 | > 10 µM | > 10 µM | > 10 µM | > 10 µM | > 10 µM | > 10 µM | > 10 µM | > 10 µM | > 10 µM | > 10 µM | – | – | – | – | – | – | – | – | – | –
3 | O=C1/C(=C/c2ccc(Cl)cc2)N=C(c2ccccc2)N1CCc1cccs1 | > 100 µM | > 100 µM | > 100 µM | > 100 µM | > 100 µM | > 100 µM | > 100 µM | > 100 µM | > 100 µM | > 100 µM | 42.7 µM | 31.8 µM | 19.3 µM | 21.2 µM | 20.1 µM | 16.7 µM | 13 µM | 23.3 µM | 55.9 µM | 22.4 µM
4 | N#Cc1c(N)sc2c1-c1ccccc1OC2 | > 100 µM | > 100 µM | > 100 µM | > 100 µM | > 100 µM | 61.7 µM | > 100 µM | 41.3 µM | > 100 µM | > 100 µM | – | – | – | – | – | – | – | – | – | –
5 | CC1(CCCO)CCCCCCCCCC(C)(CCCO)C1=O (stereo not given) | > 100 µM | > 100 µM | > 100 µM | > 100 µM | > 100 µM | > 100 µM | > 100 µM | > 100 µM | > 100 µM | > 100 µM | – | – | – | – | – | – | – | – | – | –
6 | NC1CC2NC3CCCCC3NC2CC1N (stereo not given) | > 100 µM | > 100 µM | > 100 µM | > 100 µM | > 100 µM | > 100 µM | > 100 µM | 94.5 µM | > 100 µM | > 100 µM | – | – | – | – | – | – | – | – | – | –
7 | O=C(/C=C/c1cc(O)c(O)cc1O)OCCc1ccccc1 | > 85.1 µM | > 100 µM | 54.7 µM | > 100 µM | > 100 µM | 15.7 µM | 34.2 µM | > 31.1 µM | 74.8 µM | > 57.9 µM | – | – | – | – | – | – | – | – | – | –
8 | CCCCCCCCCCCCCC[S+](C)C | > 10 µM | 3.49 µM | > 10 µM | 5.13 µM | 6.78 µM | 4.03 µM | 2.98 µM | 2.72 µM | > 10 µM | 2.28 µM | – | – | – | – | – | – | – | – | – | –
9 | CCCCN1C(=O)c2c(-c3sccc3N)sc(-c3sccc3N)c2C1=O | > 100 µM | > 100 µM | > 100 µM | 42.7 µM | > 100 µM | 78.5 µM | > 100 µM | 41 µM | 35.8 µM | 51.6 µM | – | – | – | – | – | – | – | – | – | –
10 | Cn1c(-c2ccccc2)cc2c3ccsc3c3ccsc3c21 | > 100 µM | > 100 µM | > 100 µM | > 100 µM | > 100 µM | > 100 µM | > 100 µM | > 100 µM | > 100 µM | > 100 µM | – | – | – | – | – | – | – | – | – | –
11 | N#C/C(=C\c1cc(Cl)cc(Cl)c1)c1ccccn1 | > 100 µM | > 100 µM | > 100 µM | 85.7 µM | > 100 µM | > 100 µM | > 100 µM | 47.2 µM | > 100 µM | > 100 µM | – | – | – | – | – | – | – | – | – | –
12 | CC(=O)N(O)[C@@H]1CC[C@H](n2cnc3c(N)ncnc32)C1 | > 100 µM | > 100 µM | > 100 µM | > 100 µM | > 100 µM | > 100 µM | > 100 µM | > 100 µM | > 100 µM | > 100 µM | – | – | – | – | – | – | – | – | – | –
13 | C#CC1(O)C(COP(=O)(O)OCC2OC(n3ccc(NCCCCCCCCCCCCCCCCCC)nc3=O)C(O)C2O)OC(n2ccc(N)nc2=O)C1O (stereo not given) | > 100 µM | > 34.5 µM | 36.6 µM | > 46.4 µM | 34.4 µM | 62.1 µM | 31.7 µM | 61.9 µM | > 59.4 µM | 53.5 µM | – | – | – | – | – | – | – | – | – | –
14 | COc1cc(COC(=O)N(CC(=O)O)c2ccccc2)c([N+](=O)[O-])cc1OC | > 100 µM | > 100 µM | > 100 µM | > 100 µM | > 100 µM | > 100 µM | > 100 µM | > 100 µM | > 100 µM | > 100 µM | – | – | – | – | – | – | – | – | – | –
15 | CC(C)(C)OC(=O)NCCCCC(NC(=O)OCC1c2ccccc2-c2ccccc21)C(=O)N1CCCC1C(=O)NCC(N)=O (stereo not drawn) (Fmoc-Lys(Boc)-Pro-Gly-NH2; configuration not given here) | > 100 µM | > 100 µM | 30.1 µM | > 100 µM | 37.9 µM | > 100 µM | > 100 µM | > 100 µM | 26.5 µM | 33.1 µM | – | – | – | – | – | – | – | – | – | –
16 | O=c1[nH]c(Nc2cc(Cl)cc(Cl)c2)nc2nc[nH]c12 | > 75 µM | > 75 µM | > 75 µM | > 75 µM | > 75 µM | > 75 µM | > 75 µM | > 75 µM | > 75 µM | > 75 µM | – | – | – | – | – | – | – | – | – | –
17 | NCCCNC1(c2cc3ccccc3s2)CCCCC1 | 24.8 µM | 2.98 µM | 17.7 µM | 33.3 µM | 4.06 µM | 22.6 µM | 21 µM | 17.3 µM | 28.6 µM | 10 µM | – | – | – | – | – | – | – | – | – | –
